Test results taken from ChEMBL document CHEMBL3758099, “Melatonergic ligands: Design, synthesis and pharmacological evaluation of novel series of naphthofuranic derivatives” (Eur J Med Chem, 2016).

Assays:
[1] = target: T1, 5-hydroxytryptamine receptor 2C (Homo sapiens, UniProt P28335); assay: Binding affinity to 5-HT2C receptor (unknown origin)
T1 sequence (P28335 whole entry): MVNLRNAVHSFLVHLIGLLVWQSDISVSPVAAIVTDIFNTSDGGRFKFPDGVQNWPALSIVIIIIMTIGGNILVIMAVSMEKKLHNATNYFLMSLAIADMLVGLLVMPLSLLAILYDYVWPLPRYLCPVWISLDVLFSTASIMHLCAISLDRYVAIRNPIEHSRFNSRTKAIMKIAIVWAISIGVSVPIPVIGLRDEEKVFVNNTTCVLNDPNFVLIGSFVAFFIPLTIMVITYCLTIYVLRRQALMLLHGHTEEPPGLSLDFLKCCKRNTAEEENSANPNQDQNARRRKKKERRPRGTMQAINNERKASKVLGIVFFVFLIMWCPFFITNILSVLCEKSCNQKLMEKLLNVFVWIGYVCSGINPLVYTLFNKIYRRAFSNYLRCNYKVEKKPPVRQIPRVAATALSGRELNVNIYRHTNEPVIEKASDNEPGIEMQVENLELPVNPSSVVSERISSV

[2] = target: T2, Melatonin receptor type 1B (Homo sapiens, UniProt P49286); assay: Intrinsic activity at human MT2 receptor expressed in CHO cell membranes after 1 hr by [35S]GTPgammaS binding assay; type: functional
T2 sequence (P49286 whole entry): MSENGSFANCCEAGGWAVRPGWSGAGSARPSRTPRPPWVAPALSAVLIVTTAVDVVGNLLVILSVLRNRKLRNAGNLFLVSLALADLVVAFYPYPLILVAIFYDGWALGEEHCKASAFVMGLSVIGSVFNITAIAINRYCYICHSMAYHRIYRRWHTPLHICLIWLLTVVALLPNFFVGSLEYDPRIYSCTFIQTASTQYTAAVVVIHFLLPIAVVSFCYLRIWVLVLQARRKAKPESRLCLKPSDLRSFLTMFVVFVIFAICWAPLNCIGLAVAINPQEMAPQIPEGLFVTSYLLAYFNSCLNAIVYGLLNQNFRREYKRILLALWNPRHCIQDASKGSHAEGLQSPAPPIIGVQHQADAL

[3] = target: T2, Melatonin receptor type 1B; assay: Displacement of 2-[125I]iodomelatonin from human MT2 receptor expressed in CHO cell membranes after 120 mins
[4] = target: T3, Melatonin receptor type 1A (Homo sapiens, UniProt P48039); assay: Intrinsic activity at human MT1 receptor expressed in CHO cell membranes after 1 hr by [35S]GTPgammaS binding assay; type: functional
T3 sequence (P48039 whole entry): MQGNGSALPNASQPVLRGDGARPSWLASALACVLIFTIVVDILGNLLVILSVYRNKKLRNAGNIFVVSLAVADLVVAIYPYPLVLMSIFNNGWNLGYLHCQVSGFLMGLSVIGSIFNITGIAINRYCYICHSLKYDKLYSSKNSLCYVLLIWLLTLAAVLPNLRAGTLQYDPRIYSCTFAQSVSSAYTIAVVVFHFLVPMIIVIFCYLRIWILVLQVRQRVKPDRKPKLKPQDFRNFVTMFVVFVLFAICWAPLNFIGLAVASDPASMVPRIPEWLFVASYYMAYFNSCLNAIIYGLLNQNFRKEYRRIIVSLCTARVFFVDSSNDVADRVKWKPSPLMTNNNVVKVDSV

[5] = target: T3, Melatonin receptor type 1A; assay: Displacement of 2-[125I]iodomelatonin from human MT1 receptor expressed in CHO cell membranes after 120 mins
[6] = organism: Homo sapiens; assay: Selectivity ratio of Ki for human MT1 receptor to Ki for human MT2 receptor

| Ratio Ki [6] | SMILES | Ki [1] [nM] | EC50 [2] [nM] | Ki [3] [nM] | EC50 [4] [nM] | Ki [5] [nM] |
| --- | --- | --- | --- | --- | --- | --- |
|  | COc1ccc2ccc3oc(CCNC(=O)C4CC4)cc3c2c1 | > 10000 | 5.8 | 11 | > 10000 | 73 |
|  | COc1ccc2ccc3occ(CCNC(=O)C4CC4)c3c2c1 | > 1000 | 3.2 | 13.3 | 5.2 | 236 |
|  | COc1ccc2ccc3occ(CNC(C)=O)c3c2c1 | > 10000 | 1.4 | 0.7 | 4.8 | 4.6 |
|  | CCNC(=O)NCc1cc2c(ccc3ccc(OC)cc32)o1 | > 10000 | 10 | 4.2 | > 10000 | 17 |
|  | COc1ccc2ccc3occ(CNC(=O)C4CC4)c3c2c1 | > 10000 | 8.8 | 15 | 1 | 20 |
|  | CCNC(=O)NCCc1cc2c(ccc3ccc(OC)cc32)o1 | > 10000 |  | 46 |  | 210 |
|  | COc1ccc2ccc3oc(CCNC(C)=O)cc3c2c1 | > 10000 | > 10000 | 1.7 | > 10000 | 10 |
| 31 | COc1ccc2ccc3occ(CCNC(C)=O)c3c2c1 | 140 | 0.7 | 0.09 | 4.6 | 2.8 |
|  | COc1ccc2ccc3oc(CNC(C)=O)cc3c2c1 | > 10000 | 0.98 | 0.4 | 7.7 | 2.1 |
|  | CCNC(=S)NCc1cc2c(ccc3ccc(OC)cc32)o1 | 730 |  | 7 |  | 140 |
|  | COc1ccc2ccc3occ(CNC(=O)C(C)C)c3c2c1 | > 10000 | 8.8 | 24 | 8.1 | 158 |
|  | CCNC(=O)NCCc1coc2ccc3ccc(OC)cc3c12 | > 1000 | 6.2 | 226 | 75 | 157 |
|  | COc1ccc2ccc3occ(CNC(=O)CF)c3c2c1 | > 10000 | 3.4 | 2.1 | 29 | 9.9 |
|  | COc1ccc2ccc3oc(CNC(=O)C4CC4)cc3c2c1 | > 10000 | 0.98 | 0.6 | 1 | 1.9 |
|  | CNC(=O)NCc1cc2c(ccc3ccc(OC)cc32)o1 | > 10000 |  |  |  |  |
|  | COc1ccc2ccc3oc(CNC(=O)CF)cc3c2c1 | > 10000 | 1.1 | 0.7 | 9.5 | 5.7 |
|  | CNC(=S)NCc1cc2c(ccc3ccc(OC)cc32)o1 | > 10000 |  | 0.8 |  | 43 |
